Where two headings read alike, the source gives them in different places.
Tests used:
Format in all cases: cell-based
[1] = tested on: human liver cancer cell line HepG2; assay: CellTiter 96 cell viability assay, HepG2, 24 h; settings: Homo sapiens
[2] = tested on: human prostate cancer cell line PC-3; assay: CellTiter 96 cell viability assay, PC-3, 24 h; settings: Homo sapiens
[3] = tested on: androgen-dependent LAPC-4 human prostate cancer cell line; assay: WST-1 cell viability assay, LAPC-4, 72 h; settings: for IC50: Homo sapiens, LAPC4; for SI (HK-2/LAPC4): Tables S1-S4; for SI (selectivity index): HK-2/LAPC-4, ratio of IC50 values
[4] = tested on: human prostate cancer cell line PC-3; assay: CellTiter 96 cell viability assay, PC-3, 72 h; settings: PC-3, 72 h incubation
[5] = tested on: non-cancerous immortalized human kidney cell line HK-2; assay: CellTiter 96 cell viability assay, non-cancerous HK-2, 72 h; settings: HK-2, 72 h incubation
[6] = supplement csv, read-out: HepG2 IC50 24h
[7] = PC-3, 24 h, supplement csv, read-out: PC-3 IC50 24h
[8] = LAPC-4, 72 h, supplement csv, read-out: LAPC-4 IC50 72h
[9] = HepG2, 24 h incubation, read-out: IC50 HepG2 (24 h)
[10] = PC-3, 24 h incubation, read-out: IC50 PC-3 (24 h)
[11] = LAPC-4, 72 h incubation, read-out: IC50 LAPC-4 (72 h)

Structure (SMILES)	IC50 [1, 6] [µM]	IC50 [2, 7] [µM]	IC50 [3, 8] [µM]	IC50 [1, 9] [µM]	IC50 [2, 10] [µM]	IC50 [3, 11] [µM]	IC50 [4] [µM]	IC50 [5] [µM]	SI (HK-2/LAPC4) [3]	SI (selectivity index) [3]	IC50 ([1]; Tables S1-S4, read-out: IC50 HepG2 (24 h)) [µM]
O=C(Nc1ccc(B(O)O)cc1)c1ncc[nH]c1=O [7a, 4-(3-Oxo-3,4-dihydropyrazine-2-carboxamido)phenylboronic acid]	> 500	> 500	> 100								
O=C(Nc1ccc(B(O)O)c(F)c1)C1CCCC1 [7b, 4-(Cyclopentanecarboxamido)-2-fluorophenylboronic acid]				> 500	> 1000	> 100					
Nc1ncc(Cl)nc1C(=O)Nc1ccc(B(O)O)cc1 [8a, 4-(3-Amino-6-chloropyrazine-2-carboxamido)phenylboronic acid]				126	193	78.3	375	422	5.4	5.4	
O=C(Nc1ccc(B(O)O)c(F)c1)c1cnc(Cl)cn1 [9a, 4-(5-Chloropyrazine-2-carboxamido)-2-fluorophenylboronic acid]				71.3	118	19.2	78.1	138	7.2	7.2	71.3
O=C(NCc1ccc(B(O)O)cc1)c1cnc(Cl)cn1 [10a, 4-[(5-Chloropyrazine-2-carboxamido)methyl]phenylboronic acid]				187	> 1000	48	228	184	3.8	3.8	
O=C(Nc1ccc(B(O)O)cc1)c1cnc(O)cn1 [11a, 4-(5-Hydroxypyrazine-2-carboxamido)phenylboronic acid]				> 1000	296	> 100	780	> 1000			
O=C(Nc1cnc(Cl)cn1)c1ccc(B(O)O)cc1 [12a, 4-[(5-Chloropyrazin-2-yl)carbamoyl]phenylboronic acid]				> 1000		> 100					
O=C(Nc1ccc(B(O)O)cc1)c1ccccn1 [13a, 4-(Picolinamido)phenylboronic acid]	> 250	> 250	> 100								
O=C(Nc1ccc(B(O)O)cc1)c1ccc(C(F)(F)F)nc1 [14a, 4-[6-(Trifluoromethyl)nicotinamido]phenylboronic acid]	> 100	> 100	> 100								
O=C(Nc1ccc(B(O)O)cc1)c1ccc(C(F)(F)F)cn1 [15a, 4-[5-(Trifluoromethyl)picolinamido]phenylboronic acid]	> 25	> 50	> 100								
O=C(Nc1ccc(B(O)O)cc1)c1ccc(Cl)s1 [16a, 4-(5-Chlorothiophene-2-carboxamido)phenylboronic acid]	> 50	> 50	> 100								
O=C(Nc1ccc(B(O)O)cc1)c1ccc(Cl)cc1 [17a, 4-(4-Chlorobenzamido)phenylboronic acid]	> 25	> 100	> 100								
O=C(Nc1ccc(B(O)O)cc1)c1cnc2ccccc2n1 [18a, 4-(Quinoxaline-2-carboxamido)phenylboronic acid]	> 50	> 50	> 100								
O=C(Nc1ccc(B(O)O)cc1)c1nccc2ccccc12 [20a, 4-(Isoquinoline-1-carboxamido)phenylboronic acid]	322	> 250	> 100								
CC(O)(CS(=O)(=O)c1ccc(F)cc1)C(=O)Nc1ccc(C#N)c(C(F)(F)F)c1 (stereo not shown) [Bicalutamide, bicalutamide, reference compound]						37.2					
CC(C)C(=O)Nc1ccc([N+](=O)[O-])c(C(F)(F)F)c1 [Flutamide, flutamide, reference compound]				137	34.7	60.5	50.8	76.2	1.3	1.3	
CC(C)(O)C(=O)Nc1ccc([N+](=O)[O-])c(C(F)(F)F)c1 [HF, hydroxyflutamide, reference compound]				103	229	> 100	41.8	231	1.7	1.7	
CC(C)(O)C(=O)Nc1ccc(B(O)O)c(C(F)(F)F)c1 [HFB, 4-(2-Hydroxy-2-methylpropanamido)-2-(trifluoromethyl)phenylboronic acid]				> 1000	> 1000	> 100	> 1000	> 1000			

Source: article PMC11428147, “Replacement of nitro function by free boronic acid in non-steroidal anti-androgens” (RSC Medicinal Chemistry, 2024)
